Like-named read-outs stand apart in the source and are kept apart here.

The target of assay [1] is T1, mouse brain FAAH (Mus musculus, UniProt O08914).
T1 construct: from tissue; host or cells: mouse brain (minus cerebellum), washed membrane pellet
T1 sequence (O08914 1-579): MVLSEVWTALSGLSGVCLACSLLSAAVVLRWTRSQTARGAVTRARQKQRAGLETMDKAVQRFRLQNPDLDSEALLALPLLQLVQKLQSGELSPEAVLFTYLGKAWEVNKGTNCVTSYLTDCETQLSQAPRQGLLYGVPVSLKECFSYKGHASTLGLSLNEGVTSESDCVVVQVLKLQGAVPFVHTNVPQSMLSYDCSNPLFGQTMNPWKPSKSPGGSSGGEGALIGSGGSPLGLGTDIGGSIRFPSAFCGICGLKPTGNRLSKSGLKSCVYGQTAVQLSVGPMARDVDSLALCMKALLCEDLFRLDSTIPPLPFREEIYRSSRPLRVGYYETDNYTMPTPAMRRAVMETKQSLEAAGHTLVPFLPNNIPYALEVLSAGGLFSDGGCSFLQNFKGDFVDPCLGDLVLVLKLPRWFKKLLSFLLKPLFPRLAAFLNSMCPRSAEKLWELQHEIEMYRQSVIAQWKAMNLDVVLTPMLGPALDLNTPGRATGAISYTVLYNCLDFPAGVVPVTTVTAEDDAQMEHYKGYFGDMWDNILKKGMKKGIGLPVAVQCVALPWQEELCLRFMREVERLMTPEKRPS
Briefly: Inhibition of [3H]AEA hydrolysis in mouse brain homogenates. In kind it is biochemical. The settings on record: 0.5 μM [3H]AEA. The method, then:
(§1) Brains (minus cerebella) from adult Wistar or Sprague-Dawley rats (killed by decapitation) and from male B6CBAF1/J mice (killed by cervical dislocation), stored at -80°C, were thawed, weighed and homogenized in cold buffer (20 mM HEPES, 1 mM MgCl2 pH 7.0). Homogenates were centrifuged (35,000 g at 4°C for 20 min) before the pellet was resuspended in cold homogenization buffer. Centrifugation and resuspension was repeated twice. The suspension was incubated at 37°C for 15 min to degrade any endogenous substrate able to interfere with the FAAH assay. After centrifugation (35,000 g at 4°C for 20 min), the pellet was resuspended in cold buffer (50 mM Tris-HCl, 1mM EDTA, 3 mM MgCl2, pH 7.4). The protein concentration was determined according to [27] after which the samples were frozen in aliquots at -80°C.
(§2) The assays were performed according to [28] with minor modifications. Briefly, homogenates or cell lysates in assay buffer (10 mM Tris-HCl, 1mM EDTA, pH 7.4) were mixed with substance dissolved in ethanol on ice. Hydrolysis reactions were initiated by addition of substrate ([^3H]AEA in 10 mM Tris-HCl, 1mM EDTA, pH 7.4 containing 10 mg ml^-1 fatty acid-free bovine serum, assay concentration 0.5 μM unless otherwise stated) and incubation at 37°C. For the brain homogenates, hydrolysis at 37°C was allowed to proceed for 10 min (assay volume was 200 μL, with 1 and 0.3 μg/assay protein concentrations of the rat and mouse homogenates, respectively). For the kinetic experiments, the AEA: fatty acid-free bovine serum albumin ratio was kept constant at 1: ~4.5 (μM). Following incubation, reactions were stopped by addition of 400 μL activated charcoal (80 μL activated charcoal + 320 μL 0.5 M HCl) and placement of samples on ice before centrifugation at 2500 rpm for 10 min. Aliquots (200 μL) of the supernatant were analyzed for tritium content by liquid scintillation spectroscopy with quench correction. Sample sizes were chosen on the basis of previous data investigating FAAH inhibitory properties of compounds.
(§3) pI50 and IC50 values were calculated using log(inhibitor) vs. response with variable slope (four parameters) algorithm in the GraphPad Prism computer program (GraphPad Software Inc., San Diego, CA. USA). […] The best fit was chosen by Akaike’s informative criteria. Ki and α values were obtained using the enzyme kinetics mixed model inhibition curve fitting algorithm available in the GraphPad Prism programme. This models the observed velocity v^app at a given substrate concentration where v^app = Vmax ^app/(1 + Km ^app/[S]), Vmax ^app = Vmax/(1+[I]/(αKi)) and Km ^app = Km(1+[I]/Ki)/(1+[I]/(αKi)) (http://www.graphpad.com/guides/prism/6/curve-fitting/index.htm?reg_mixered_model.htm, URL checked 16 October 2015). The model assuming competitive interactions (where α→∞) was also used, and the best fit was chosen by Akaike’s informative criteria. Robust linear regressions for the Dixon plots, which are less sensitive to outliers than the standard least-squares methodology were undertaken using the same computer programme.

Assay [2] addresses T2, rat brain FAAH (Rattus norvegicus, UniProt P97612).
T2 construct: from tissue; host or cells: rat brain (minus cerebellum), washed membrane pellet
T2 sequence (P97612 1-579): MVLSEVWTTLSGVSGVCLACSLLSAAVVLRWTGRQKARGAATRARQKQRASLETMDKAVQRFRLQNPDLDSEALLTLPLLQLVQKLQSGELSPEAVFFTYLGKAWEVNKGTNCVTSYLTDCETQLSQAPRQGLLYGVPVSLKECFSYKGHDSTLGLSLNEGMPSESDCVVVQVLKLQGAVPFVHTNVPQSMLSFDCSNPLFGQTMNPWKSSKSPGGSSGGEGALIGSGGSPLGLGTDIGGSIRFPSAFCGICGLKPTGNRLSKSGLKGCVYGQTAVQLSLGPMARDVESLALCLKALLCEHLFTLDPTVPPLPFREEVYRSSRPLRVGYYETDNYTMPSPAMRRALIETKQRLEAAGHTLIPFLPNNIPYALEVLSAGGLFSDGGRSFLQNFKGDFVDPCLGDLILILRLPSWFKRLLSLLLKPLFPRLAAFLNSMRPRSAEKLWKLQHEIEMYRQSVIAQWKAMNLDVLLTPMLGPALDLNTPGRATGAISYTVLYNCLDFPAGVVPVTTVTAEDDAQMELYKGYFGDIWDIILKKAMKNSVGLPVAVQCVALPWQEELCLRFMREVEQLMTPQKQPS
Briefly: Inhibition of [3H]AEA hydrolysis in rat brain homogenates. The class given is biochemical. Particulars: for remaining activity at 0.7 µM: 0.7 μM inhibitor. How it is done:
as §1, §2, §3

Regarding `Cc1cccnc1NC(=O)[C@H](C)c1ccc(-c2ccccc2)c(F)c1` [(R)-Flu-AM1, (R)-2-(2-fluorobiphenyl-4-yl)-N-(3-methylpyridin-2-yl)propanamide], the “nH (Hill slope)” value in assay [1] is 0.78±0.09; in assay [2] (rat brain homogenates, 0.5 μM [3H]AEA), 0.90±0.04. The results for the remaining activity at 0.7 µM in assay [2] (preincubation 0 min at 37°C) and in assay [2] (preincubation 60 min at 37°C) were 50 ± 1% and 39 ± 4%, respectively. Moreover, in assay [2] (0.5–4 μM [3H]AEA, compared with pure competitive model), the “mode of inhibition (best-fit model)” value is listed as “linear mixed inhibition”. Also, the reversibility of inhibition entry in assay [2] (20-fold dilution after 60 min of preincubation) was “completely reversible”. The “interaction with carprofen in multiple inhibition experiments” value in assay [2] (Dixon plots, 0.5 μM [3H]AEA, together with carprofen) is listed as “mutually exclusive manner”. In assay [2] (linear mixed inhibition model fit, 0.5–4 μM [3H]AEA), this molecule registered a α of 3.2±1.3. Moreover, the Ki in assay [2] (linear mixed inhibition model fit, 0.5–4 μM [3H]AEA, read-out: Ki) amounted to 630 ± 170 nM; in assay [2] (median of Dixon plot intersections, 0.5–4 μM [3H]AEA, read-out: Ki (Dixon plot)) it was 280 nM. Further, the IC50 is 740 nM in assay [2] (rat brain homogenates, 0.5 μM [3H]AEA, read-out: IC50) and 741 nM in assay [2] (rat brain homogenates, 0.5 μM [3H]AEA, read-out: pI50 (converted)).

One may read the remaining activity as the activity still measured, relative to the control. Broadly, the Ki is the dissociation constant of the complex between target and ligand, obtained from inhibition or displacement.

Values taken from article PMC4643906, “Interaction of the N-(3-Methylpyridin-2-yl)amide Derivatives of Flurbiprofen and Ibuprofen with FAAH: Enantiomeric Selectivity and Binding Mode” (PLoS ONE, 2015).
